# Assay results from patent publication US9119396B2, “Method for promoting plant growth” (SUMITOMO CHEMICAL COMPANY, LIMITED, priority 2011, dated 2015).
# Experiments:
# Assay type in all cases: in vivo
# [1] = test system: Rice (cultivar: Nipponbare); assay: Test Example 1: promotion of root growth in hydroponics of rice; conditions: 1 ppm, 3 days germination + 3 days cultivation, average of 4 or 5 individuals
# Experimental: Evaluation Test for Promotion of Root Growth in Hydroponics of Rice Rice (cultivar: Nipponbare) A 1/10,000 volume of each DMSO solution containing each of the present compounds 1 to 4 at 10,000 ppm was added to a Hoagland solution for hydroponics (Hoagland and Amon, California Agricultural Experiment Station 1950 Circular 347 pp. 34) at ¼ concentration to obtain a solution for hydroponics containing each of the present compounds 1 to 4 at 1 ppm. These solutions were used in the treated-group. In a non-treated group, a solution for hydroponics obtained by adding a Hoagland solution for hydroponics at ¼ concentration to a 1/10,000 volume of DMSO was used. The rice seeds were immersed in an aqueous solution of 1% sodium hypochlorite for 10 minutes, followed by 70% ethanol solution to sterilize their surfaces. After that, the seeds were washed with distilled water. The sterilized seeds were immersed in each solution for hydroponics containing the test compound at 1 ppm, and incubated at a temperature of 28° C. for 3 days under dark conditions to stimulate the germination of the seeds. Then, 30 ml of each solution for hydroponics containing the test compound at 1 ppm was dispensed into a plastic tube (20 mm in diameter×113 mm in height) covered with a cardboard on the lateral surface for blocking a light. A float made of a styrene board and a vinyl mesh was placed on the water surface of each solution for hydroponics, and the rice seeds obtained after the stimulation of germination were placed on the float. The seeds were cultivated for 3 days under the conditions of an illuminance of 4,000 lux at the top of the tube, a temperature of 26° C., a humidity of 50%, and a day length of 16 hours. The root length of the rice seedlings obtained after the cultivation was measured by using WinRHIZO system (manufactured by REGENT INSTRUMENTS). The average value of the root length in the treated group was calculated from the measurement values of 4 or 5 individuals. As a result, the root length in the treated group, wherein the plants were treated with the present compound 1, 2, 3 or 4 (at a concentration of 1 ppm in each case), was much longer than that in the non-treated group.
# [2] = test system: Benthamiana tobacco (Nicotiana benthamiana); assay: Test Example 9: reduction of low-temperature stress in hydroponics of tobacco; conditions: tobacco seedlings, medium with 0.1 ppm compound for 7 days; low-temperature stress 1.5±1.0° C. 7 days, then 3 days at 22° C.
# Experimental: Evaluation Test for Reduction of Low-Temperature Stress in Hydroponics of Tobacco (Nicotiana benthamiana) Benthamiana tobacco (Nicotiana benthamiana) DMSO solutions containing each of the present compounds 1, 4 and 5 at a concentration of 100 ppm were prepared. […] These media were used in the treated-group. In a non-treated group, a medium obtained by adding a 1/1,000 volume of DMSO to a Murashige-and-Skoog medium at ½ concentration was used. The seeds of tobacco (Nicotiana benthamiana) were sown on 5 μL of the medium, and incubated at 22° C. overnight. Thereto was added 45 μL of a medium containing each present compound at a concentration of 0.1 ppm, and cultivated for 7 days under the conditions of an illuminance of 4,000 lux, a temperature of 22° C. and a day length of 16 hours, thereby treating the seedlings of tobacco (Nicotiana benthamiana) with the test compound. In the non-treated group, 45 μL of a medium obtained by adding a 1/1,000 volume of DMSO to a Murashige-and-Skoog medium at ½ concentration was added, and treated in the same manner as above. The seedlings of tobacco (Nicotiana benthamiana) treated with the present compounds were cultivated for 7 days under the conditions of an illuminance of 2,000 lux, a temperature of 1.5±1.0° C., and a day length of 16 hours, thereby subjecting to low-temperature stress treatment. The plants of tobacco (Nicotiana benthamiana) subjected to low-temperature stress treatment was cultivated for 3 days under the conditions of an illuminance of 4,000 lux, a temperature of 22° C., and a day length of 16 hours, and then the green leaf area of the plants was visually evaluated. Completely dead plant was scored as 0, the plant without low-temperature stress treatment was scored as 5, the green area was rated on a 6-point scale in ⅕ increments, and the score of not less than 1 was regarded as effective in reducing the stress. As a result of visual evaluation, the green leaf area of plants in the treated group, wherein the plants were treated with the present compound 1, 4 or 5 was much larger than that in the non-treated group.
# [3] = test system: Rice (cultivar: Nipponbare); assay: Test Example 8: promotion of root growth in hydroponics of rice; conditions: 1 ppm, 3 days germination + 3 days cultivation, average of 4 or 5 individuals
# Experimental: Evaluation Test for Promotion of Root Growth in Hydroponics of Rice Rice (cultivar: Nipponbare) A 1/10,000 volume of a DMSO solution containing the present compound 5 at 10,000 ppm was added to a Hoagland solution for hydroponics (Hoagland and Amon, California Agricultural Experiment Station 1950 Circular 347 pp. 34) at ¼ concentration to obtain a solution for hydroponics containing the present compound 5 at 1 ppm. The solution was used in the treated-group. In a non-treated group, a solution for hydroponics obtained by adding a Hoagland solution for hydroponics at ¼ concentration to a 1/10,000 volume of DMSO was used. The rice seeds were immersed in an aqueous solution of 1% sodium hypochlorite for 10 minutes, followed by 70% ethanol solution to sterilize their surfaces. After that, the seeds were washed with distilled water. The sterilized seeds were immersed in the solution for hydroponics containing the test compound at the given concentration, and incubated at a temperature of 28° C. for 3 days under dark conditions to stimulate the germination of the seeds. […] The root length of the rice seedlings obtained after the cultivation was measured by using WinRHIZO system (manufactured by REGENT INSTRUMENTS). The average value of the root length in the treated group was calculated from the measurement values of 4 or 5 individuals. […]
Structure (SMILES),root length of the rice seedlings vs non-treated group [1],green leaf area of plants (visual evaluation) vs non-treated group [2],root length of the rice seedlings vs non-treated group [3]
COC(=O)c1cc2ccc(C(F)(F)F)cc2s1 [compound 2],much longer,–,–
COC(=O)c1cc2c(C(F)(F)F)cccc2s1 [compound 3],much longer,–,–
COC(=O)c1cc2cccc(C(F)(F)F)c2s1 [compound 4],much longer,much larger,–
CCOC(=O)c1cc2cc(C(F)(F)F)ccc2s1 [compound 5],–,much larger,much longer
